Measurements published in the NIST ThermoML archive (doi:10.1016/j.fluid.2012.11.007).
Several values for one entry are separate records, joined by “and”; a condition that tells them apart may be missing. Equal values may be shown once. ± gives the expanded uncertainty stated by the source.

Tests used:
[1] = Crystal; DTA
[2] = Molar enthalpy of transition or fusion; conditions: Crystal; DSC

Normal melting temperature [1] [°C]	Molar enthalpy of transition or fusion [2]	SMILES
69.80 ± 0.5	6.1 kcal/mol and 6.02 kcal/mol	CCCCn1cc[n+](C)c1.[Cl-] [1-butyl-3-methylimidazolium chloride]
88.60 ± 0.5	3.67 ± 0.127 kcal/mol	CCn1cc[n+](C)c1.[Cl-] [1-ethyl-3-methylimidazolium chloride]
